From ChEMBL document CHEMBL1201862, “PubChem BioAssay data set” (2004) come the findings set out here.

Holding throughout (experiment): NCI tumour cell line growth inhibition, 48 h
Test [1] has as its system EKVX.
In test [2] the test system is M19-MEL.
The test system of test [3] is A498.
Test [4] deals with DMS-273.
Test [5] concerns LOX IMVI.
Test [6] has as its system SK-MEL-28.
For test [7], the system named is HOP-18.
In test [8] the test system is NCI-H23.
In test [9] the test system is DMS-114.
Test [10] deals with KM-20L2.
Test [11] deals with SF-295.
Test [12] has as its system Malme-3M.
The subject of test [13] is COLO 205.
The subject of test [14] is KM12.
Test [15] has as its system RXF 393.
The test system of test [16] is MCF7.

SMILES strings stand for the structures.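 Results reflect a 48-hour exposure of cells in 96-well plates to compound at five concentrations. Abbreviation: GI50, concentration required for 50% inhibition of growth.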 Active and inactive are the calls of the source. Rule as the data show it: active = GI50 up to about 1.1 µM and inactive = higher.

Turning to `c1ccc2c(c1)nc1n2CSC1`, the GI50 in test [1], in [2], in test [3], in test [4], in test [5] and in test [6] was > 100 µM (inactive) throughout. Moreover, the GI50 in test [7], in test [8], in test [9], in [10], in test [11] and in [12] was > 100 µM (inactive) each time. The GI50 in [13] was > 100 µM (inactive).

As to `N#C/C(=C/c1ccco1)C(=O)c1ccccc1`, the GI50 in test [1], in test [2], in test [3], in test [5], in test [6] and in test [14] was > 100 µM (inactive) each time. Moreover, the GI50 in test [7], in [8], in [9], in test [11], in test [12] and in test [13] was > 100 µM (inactive) each time.

Regarding `O=C(CC1(O)C(=O)Nc2c(Cl)cc(Cl)cc21)c1ccco1` (stereo not drawn), the GI50 in test [1] was 59.2 µM (inactive); in test [15], 78 µM (inactive); in test [4], 38.8 µM (inactive); in [5] it was 33.1 µM (inactive); in test [6] it was > 100 µM (inactive); in [14] it was 32.7 µM (inactive). The GI50 was 55.7 µM (inactive) in test [7]; 56.1 µM (inactive) in test [8]; 22.8 µM (inactive) in [9]; 48.3 µM (inactive) in [10]; 32 µM (inactive) in test [11]; > 100 µM (inactive) in test [12]. The GI50 in test [13] was > 100 µM (inactive).

In the case of `COc1cc(C2C(C(=O)Nc3ccccc3C)=C(C)NC(C)=C2C(=O)Nc2ccccc2C)ccc1O`, the GI50 in [1], in test [2], in test [15], in [3], in test [4] and in test [6] was > 100 µM (inactive) each time. Further, the GI50 in [14], in [7], in test [8], in test [9], in test [10] and in test [11] was > 100 µM (inactive) each time. In addition, the GI50 in test [12] and in test [13] was > 100 µM (inactive) throughout.

With `NC(CCCCNCc1ccccc1)C(=O)O` (stereo not drawn), the GI50 in [1], in test [2], in test [3], in test [4], in test [5] and in [6] was > 100 µM (inactive) in each case. Moreover, the GI50 in test [14], in test [7], in [8], in test [9], in [10] and in test [11] was > 100 µM (inactive) in each case. Also, the GI50 in test [12] and in [13] was > 100 µM (inactive) throughout.

As for `CN(C)CCNC(=O)c1cccc2c1nc(-c1cccnc1)c1ccccc12`, the GI50 in test [1] was 4.24 µM (inactive); in [2] it was 5 µM (inactive); in test [15], 4.71 µM (inactive); in test [3] it was 1.61 µM (inactive); in test [4], 3.02 µM (inactive); in [5] it was 2.15 µM (inactive). The GI50 is 11.1 µM (inactive) in test [6]; 6.78 µM (inactive) in test [14]; 21.6 µM (inactive) in test [7]; 4.24 µM (inactive) in [8]; 4.91 µM (inactive) in test [9]; 4.72 µM (inactive) in test [11]. For the same compound, in test [13], the GI50 was 4.47 µM (inactive).

With `Cn1c2ccccc2c2ccc3c(c21)C(=O)C(c1ccccc1)=CC3=O`, the GI50 in [1] is 23.2 µM (inactive); in test [2] it was 24 µM (inactive); in [4], 21.5 µM (inactive); in [6], 24 µM (inactive); in test [14], 32.2 µM (inactive); in test [7], 0.0957 µM (active). In addition, the GI50 in test [8] was 22.4 µM (inactive); in test [9], 17.9 µM (inactive); in test [11], 61.4 µM (inactive); in test [12], 21.9 µM (inactive); in [13], 31.1 µM (inactive).

`CS(=O)(=O)N/N=C/CN1C(=O)c2ccccc2C1=O`: the GI50 in test [1], in test [2], in test [3], in test [4], in test [6] and in test [14] was > 100 µM (inactive) throughout. Also, the GI50 in test [7], in test [8], in test [9], in test [10], in test [11] and in test [12] was > 100 µM (inactive) each time. In addition, the GI50 in [13] was > 100 µM (inactive).

In the case of `Nc1cc(O)c2cc(/N=N/c3ccc(/N=N/c4ccc(/N=N/c5ccc6cc(S(=O)(=O)O)cc(S(=O)(=O)O)c6c5)c5ccccc45)c4cc(S(=O)(=O)O)ccc34)c(S(=O)(=O)O)cc2c1`, the GI50 in test [1] was > 100 µM (inactive); in test [2], > 100 µM (inactive); in test [15], > 100 µM (inactive); in [3], > 100 µM (inactive); in [4], 97.1 µM (inactive); in test [5], > 100 µM (inactive). The GI50 in test [6] was > 100 µM (inactive); in test [14], > 100 µM (inactive); in [16] it was > 100 µM (inactive); in test [7], > 100 µM (inactive); in [8] it was > 100 µM (inactive); in [10], > 10 µM (inactive). The GI50 in test [11] was > 53.2 µM (inactive); in test [12], > 100 µM (inactive); in [13], > 100 µM (inactive).

As for `CC(=O)C1C(=O)C(=O)N(c2ccc(Cl)cc2C)C1=O` (stereo not drawn), the GI50 in test [1], in test [2], in [15], in test [3], in test [6] and in [14] was > 100 µM (inactive) in each case. The GI50 in test [7], in test [8], in test [9], in [10], in test [11] and in test [12] was > 100 µM (inactive) throughout. Also, the GI50 in [13] was > 100 µM (inactive).

For the compound `COc1ccc(/C(Cl)=C(\C=O)c2ccc(OC)c(OC)c2)cc1`, the GI50 in test [1] is 93.8 µM (inactive); in test [2] it was > 100 µM (inactive); in test [3], 35.9 µM (inactive); in [5], 23.3 µM (inactive); in test [6], > 100 µM (inactive); in test [7] it was 49.9 µM (inactive). For the same compound, the GI50 was 21.5 µM (inactive) in [8]; 25.9 µM (inactive) in [9]; > 100 µM (inactive) in [10]; 25.4 µM (inactive) in test [11]; 17.4 µM (inactive) in test [12]; > 100 µM (inactive) in test [13].
